Laboratory results as given in US20080070978A1, “Internal 1,15-Lactones Of Fluprostenol And Related Prostaglandin F2a Analogs And Their Use In The Treatment Of Glaucoma And Intraocular Hypertension” (priority 2000, published 2008).

Test system: corneal esterase enzymes
Test: Enzymatic hydrolysis of fluprostenol 1,15-lactone by corneal esterase enzymes (incubation with bovine corneal tissue; TLC and HPLC analysis)
Type: in vitro ADME
Settings: pH 7.4 phosphate buffered saline, 37° C.
Description: Enzymatic hydrolysis of fluprostenol 1,15-lactone by corneal esterase enzymes was documented by suspending 500 μg of fluprostenol 1,15-lactone in 10 ml of pH 7.4 phosphate buffered saline containing approximately 40 mg of freshly collected bovine cornea! tissue. The mixture was incubated at 37° C. and analyzed at 2 hour, 4 hour and 18 hour time intervals by Thin Layer Chromatography (TLC; Analtech silica gel G-60 plates) using 40:60 acetone:dichloromethane containing 0.5% acetic acid. The plates were visualized by spraying with vanillin dissolved in methanol and phosphoric acid; followed by charring on a hot plate. PGF2α methyl ester, which is known to be hydrolyzed by corneal esterases, was subjected to the same procedure as a control.
The results are shown in FIGS. 3A-3D which are images of chromatography plates developed at 2 hours (FIGS. 3A and 3C) and 4 hours (FIGS. 3B and 3D), respectively. […]
The mixture of fluprostenol 1,15-lactone and bovine corneal tissue was also analyzed using HPLC under the conditions specified in FIGS. 4A and 4B which are graphic representations of the HPLC analysis results for a fluprostenol 1,15-lactone standard (FIG. 4A) and a mixture of fluprostenol 1,15-lactone and bovine corneal tissue incubated for 4 hours (FIG. 4B).

- conversion of fluprostenol 1,15-lactone to fluprostenol free acid (HPLC, after 4 hours): more than 50%
- release of the free acid by hydrolysis (TLC, by 4 hours): clearly shown
SMILES: O=C1CCC/C=C\CC2C(/C=C/[C@@H](COc3cccc(C(F)(F)F)c3)O1)[C@H](O)C[C@@H]2O (some centres unmarked) [fluprostenol 1,15-lactone]
